Data published in article PMC3445516 (PLoS ONE, 2012).
Read-outs that look alike come from different tables or passages of the source. One block for each compound: values may come before it.

Tests used:
Assay in all cases: Ambit kinase profiling, competition binding
BRAF(V600E) = biological target: T1, BRAF(V600E) (Homo sapiens, UniProt P15056, V600E)
T1 construct: purchased Ambit Biosciences (KINOMEscan)
Experimental: (§1) Also included in the kinase profile are four isoforms of PKC (δ, ε, η, θ) and eight isoforms of CAMKs (CAMKIα, δ, γ; CAMKIIα, β, δ, γ; CAMK4).
(§2) The global kinase profiling experiment was performed by Ambit Biosciences.

CSNK1G1 = biological target: T2, CSNK1G1 (Homo sapiens, UniProt Q9HCP0); settings: for % Competition: 10 µM
T2 construct: purchased Ambit Biosciences (KINOMEscan)
T2 sequence (Q9HCP0 whole entry): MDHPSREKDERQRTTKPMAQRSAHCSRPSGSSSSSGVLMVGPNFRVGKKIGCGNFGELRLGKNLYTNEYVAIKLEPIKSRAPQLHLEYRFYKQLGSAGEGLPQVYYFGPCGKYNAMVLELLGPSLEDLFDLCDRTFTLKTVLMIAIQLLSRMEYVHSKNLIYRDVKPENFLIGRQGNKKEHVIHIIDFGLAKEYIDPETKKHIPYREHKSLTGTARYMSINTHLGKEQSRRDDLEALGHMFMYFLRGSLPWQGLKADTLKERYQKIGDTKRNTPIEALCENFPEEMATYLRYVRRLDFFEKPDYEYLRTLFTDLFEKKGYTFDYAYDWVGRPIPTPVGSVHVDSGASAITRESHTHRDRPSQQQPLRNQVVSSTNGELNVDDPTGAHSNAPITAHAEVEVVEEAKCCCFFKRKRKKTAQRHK
Experimental: as §1, §2

[1] = biological target: T3, EGFR(L747-S752del, P753S) (Homo sapiens, UniProt P00533, DEL747-752/P753S); settings: for % Competition: 10 µM
T3 construct: purchased Ambit Biosciences (KINOMEscan)
Experimental: as §1, §2

MEK4 = biological target: T4, MEK4 (Homo sapiens, UniProt P45985)
T4 construct: purchased Ambit Biosciences (KINOMEscan)
T4 sequence (P45985 1-399): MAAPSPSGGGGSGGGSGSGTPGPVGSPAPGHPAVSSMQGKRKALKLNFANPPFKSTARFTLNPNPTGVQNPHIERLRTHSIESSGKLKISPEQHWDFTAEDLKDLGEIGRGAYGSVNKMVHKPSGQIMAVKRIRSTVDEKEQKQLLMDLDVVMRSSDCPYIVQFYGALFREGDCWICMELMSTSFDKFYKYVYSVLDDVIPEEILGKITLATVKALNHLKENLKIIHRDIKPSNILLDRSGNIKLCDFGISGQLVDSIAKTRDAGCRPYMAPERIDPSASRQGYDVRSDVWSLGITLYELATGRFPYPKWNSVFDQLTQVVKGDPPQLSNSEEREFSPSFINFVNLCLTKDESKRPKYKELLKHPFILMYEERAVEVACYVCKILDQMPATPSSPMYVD
Experimental: as §1, §2

MRCKB = biological target: T5, MRCKB (Homo sapiens, UniProt Q9Y5S2)
T5 construct: purchased Ambit Biosciences (KINOMEscan)
T5 sequence (Q9Y5S2 whole entry): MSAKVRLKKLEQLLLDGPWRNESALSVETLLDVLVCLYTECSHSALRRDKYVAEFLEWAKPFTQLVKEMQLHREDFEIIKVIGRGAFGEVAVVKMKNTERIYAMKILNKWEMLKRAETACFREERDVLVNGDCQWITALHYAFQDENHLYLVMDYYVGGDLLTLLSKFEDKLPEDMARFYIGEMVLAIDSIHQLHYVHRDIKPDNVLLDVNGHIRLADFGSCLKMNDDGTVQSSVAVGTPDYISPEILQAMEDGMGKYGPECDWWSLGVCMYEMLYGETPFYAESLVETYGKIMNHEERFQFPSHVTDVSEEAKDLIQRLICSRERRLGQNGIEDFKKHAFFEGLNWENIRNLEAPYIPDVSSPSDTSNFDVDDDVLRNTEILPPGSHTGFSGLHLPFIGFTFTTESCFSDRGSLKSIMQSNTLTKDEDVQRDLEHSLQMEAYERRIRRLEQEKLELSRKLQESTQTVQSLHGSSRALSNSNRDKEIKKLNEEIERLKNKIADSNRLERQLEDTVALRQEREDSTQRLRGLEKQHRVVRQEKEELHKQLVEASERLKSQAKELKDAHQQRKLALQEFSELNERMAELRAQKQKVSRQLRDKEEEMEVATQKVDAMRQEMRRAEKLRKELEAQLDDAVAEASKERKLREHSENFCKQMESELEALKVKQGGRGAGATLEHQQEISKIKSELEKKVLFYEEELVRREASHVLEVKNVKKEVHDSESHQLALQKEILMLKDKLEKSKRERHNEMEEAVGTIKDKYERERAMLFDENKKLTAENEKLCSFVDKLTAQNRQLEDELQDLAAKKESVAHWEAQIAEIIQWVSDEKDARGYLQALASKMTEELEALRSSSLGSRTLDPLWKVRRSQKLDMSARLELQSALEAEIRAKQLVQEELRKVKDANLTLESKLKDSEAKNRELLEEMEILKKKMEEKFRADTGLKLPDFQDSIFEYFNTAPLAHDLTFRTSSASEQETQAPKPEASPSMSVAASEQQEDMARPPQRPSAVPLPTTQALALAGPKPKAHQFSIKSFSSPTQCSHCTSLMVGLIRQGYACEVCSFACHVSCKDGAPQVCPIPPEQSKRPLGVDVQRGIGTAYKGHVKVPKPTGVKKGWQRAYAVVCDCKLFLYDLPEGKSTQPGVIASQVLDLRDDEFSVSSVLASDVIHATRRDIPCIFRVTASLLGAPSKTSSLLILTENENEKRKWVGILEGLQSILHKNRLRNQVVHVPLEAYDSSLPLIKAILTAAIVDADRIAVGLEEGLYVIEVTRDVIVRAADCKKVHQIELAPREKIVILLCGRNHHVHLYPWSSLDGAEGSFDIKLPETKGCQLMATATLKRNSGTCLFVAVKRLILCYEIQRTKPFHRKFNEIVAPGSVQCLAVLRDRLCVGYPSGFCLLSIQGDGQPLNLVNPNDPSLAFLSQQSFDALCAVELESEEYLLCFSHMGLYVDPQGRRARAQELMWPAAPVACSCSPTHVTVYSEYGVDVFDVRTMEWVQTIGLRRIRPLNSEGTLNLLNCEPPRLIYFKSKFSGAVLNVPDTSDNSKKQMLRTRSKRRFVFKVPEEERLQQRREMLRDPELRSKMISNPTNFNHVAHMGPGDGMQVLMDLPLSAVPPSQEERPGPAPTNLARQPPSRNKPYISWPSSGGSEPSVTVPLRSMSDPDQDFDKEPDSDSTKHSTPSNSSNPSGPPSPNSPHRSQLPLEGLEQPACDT
Experimental: as §1, §2

PAK4 = biological target: T6, PAK4 (Homo sapiens, UniProt O96013)
T6 construct: purchased Ambit Biosciences (KINOMEscan)
T6 sequence (O96013 whole entry): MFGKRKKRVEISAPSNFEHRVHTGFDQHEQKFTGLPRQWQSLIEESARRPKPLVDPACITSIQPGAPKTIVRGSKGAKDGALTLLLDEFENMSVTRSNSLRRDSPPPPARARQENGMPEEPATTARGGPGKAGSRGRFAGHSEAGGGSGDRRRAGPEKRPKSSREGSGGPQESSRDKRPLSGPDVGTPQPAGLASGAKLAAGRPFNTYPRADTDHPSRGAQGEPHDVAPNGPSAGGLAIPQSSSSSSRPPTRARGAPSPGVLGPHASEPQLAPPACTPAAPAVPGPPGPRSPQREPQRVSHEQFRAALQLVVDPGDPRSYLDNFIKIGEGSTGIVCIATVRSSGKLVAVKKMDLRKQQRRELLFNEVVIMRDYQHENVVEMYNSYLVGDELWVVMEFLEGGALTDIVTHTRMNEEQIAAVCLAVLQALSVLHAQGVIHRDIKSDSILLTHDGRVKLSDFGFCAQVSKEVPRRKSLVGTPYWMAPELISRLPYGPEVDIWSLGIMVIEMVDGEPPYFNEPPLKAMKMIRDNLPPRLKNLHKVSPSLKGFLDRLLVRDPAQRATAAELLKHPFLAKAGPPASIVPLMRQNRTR
Experimental: as §1, §2

PKAC-beta = biological target: T7, PKAC-beta (Homo sapiens, UniProt P22694)
T7 construct: purchased Ambit Biosciences (KINOMEscan)
Experimental: as §1, §2

PKC η = biological target: T8, PKC η (Homo sapiens, UniProt P24723); settings: for competition: PKC η, 10 µM
T8 construct: purchased Ambit Biosciences (KINOMEscan)
Experimental: as §1, §2

RAF1 = biological target: T9, RAF1 (Homo sapiens, UniProt P04049)
T9 construct: purchased Ambit Biosciences (KINOMEscan)
T9 sequence (P04049 whole entry): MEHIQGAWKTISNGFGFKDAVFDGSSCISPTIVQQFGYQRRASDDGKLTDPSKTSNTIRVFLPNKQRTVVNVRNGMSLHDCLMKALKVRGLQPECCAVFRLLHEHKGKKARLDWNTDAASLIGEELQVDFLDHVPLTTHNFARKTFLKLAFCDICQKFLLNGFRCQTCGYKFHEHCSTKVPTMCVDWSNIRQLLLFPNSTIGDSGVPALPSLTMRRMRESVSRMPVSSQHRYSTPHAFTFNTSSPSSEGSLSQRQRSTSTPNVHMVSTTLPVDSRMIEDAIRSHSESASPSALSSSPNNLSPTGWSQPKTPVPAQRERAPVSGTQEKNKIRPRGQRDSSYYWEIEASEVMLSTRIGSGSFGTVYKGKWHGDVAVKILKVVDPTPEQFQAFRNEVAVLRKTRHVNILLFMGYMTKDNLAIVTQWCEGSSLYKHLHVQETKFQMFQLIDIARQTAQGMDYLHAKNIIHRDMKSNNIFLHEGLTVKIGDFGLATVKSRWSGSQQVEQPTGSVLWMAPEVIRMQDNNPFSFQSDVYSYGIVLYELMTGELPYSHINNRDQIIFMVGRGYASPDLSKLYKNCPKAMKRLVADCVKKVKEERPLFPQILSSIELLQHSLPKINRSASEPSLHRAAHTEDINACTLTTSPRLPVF
Experimental: as §1, §2

RIPK4 = biological target: T10, RIPK4 (Homo sapiens, UniProt P57078)
T10 construct: purchased Ambit Biosciences (KINOMEscan)
T10 sequence (P57078 1-832): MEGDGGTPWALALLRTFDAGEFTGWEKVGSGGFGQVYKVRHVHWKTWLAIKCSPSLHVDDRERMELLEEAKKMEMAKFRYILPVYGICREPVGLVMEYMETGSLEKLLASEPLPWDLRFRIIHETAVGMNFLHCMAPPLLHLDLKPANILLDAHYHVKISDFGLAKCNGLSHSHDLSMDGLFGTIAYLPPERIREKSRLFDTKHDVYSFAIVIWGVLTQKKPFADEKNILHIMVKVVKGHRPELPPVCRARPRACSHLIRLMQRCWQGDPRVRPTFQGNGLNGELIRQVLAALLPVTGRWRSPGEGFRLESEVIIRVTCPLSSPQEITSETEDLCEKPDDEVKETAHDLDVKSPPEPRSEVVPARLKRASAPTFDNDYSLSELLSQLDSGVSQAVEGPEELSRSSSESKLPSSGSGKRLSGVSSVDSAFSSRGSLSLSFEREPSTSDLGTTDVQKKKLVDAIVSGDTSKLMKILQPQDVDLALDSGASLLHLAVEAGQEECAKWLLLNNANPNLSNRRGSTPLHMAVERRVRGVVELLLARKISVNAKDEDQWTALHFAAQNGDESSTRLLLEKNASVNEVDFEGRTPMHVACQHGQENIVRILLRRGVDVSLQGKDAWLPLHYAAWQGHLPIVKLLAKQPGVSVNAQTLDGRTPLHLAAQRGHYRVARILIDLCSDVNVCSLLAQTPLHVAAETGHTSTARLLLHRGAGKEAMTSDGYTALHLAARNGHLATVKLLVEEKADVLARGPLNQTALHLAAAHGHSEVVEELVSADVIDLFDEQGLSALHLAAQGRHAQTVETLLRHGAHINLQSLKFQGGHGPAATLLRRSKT
Experimental: as §1, §2

[2] = biological target: T11, RPS6KA6(Kin.Dom.2-C-terminal) (Homo sapiens, UniProt Q9UK32); settings: for % Competition: 10 µM
T11 construct: RPS6KA6(Kin.Dom.2-C-terminal); purchased Ambit Biosciences (KINOMEscan)
T11 sequence (Q9UK32 401-745 limits assumed): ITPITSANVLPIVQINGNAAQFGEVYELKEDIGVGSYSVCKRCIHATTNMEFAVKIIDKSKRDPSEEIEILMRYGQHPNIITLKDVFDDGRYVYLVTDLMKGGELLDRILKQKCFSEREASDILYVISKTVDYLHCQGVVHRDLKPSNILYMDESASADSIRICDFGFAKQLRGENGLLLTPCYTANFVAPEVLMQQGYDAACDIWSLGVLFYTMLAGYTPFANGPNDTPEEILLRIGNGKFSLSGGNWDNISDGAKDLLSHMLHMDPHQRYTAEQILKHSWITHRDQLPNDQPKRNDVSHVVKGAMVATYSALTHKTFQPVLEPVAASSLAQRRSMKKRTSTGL
Experimental: as §1, §2

STK35 = biological target: T12, STK35 (Homo sapiens, UniProt Q8TDR2)
T12 construct: purchased Ambit Biosciences (KINOMEscan)
T12 sequence (Q8TDR2 whole entry): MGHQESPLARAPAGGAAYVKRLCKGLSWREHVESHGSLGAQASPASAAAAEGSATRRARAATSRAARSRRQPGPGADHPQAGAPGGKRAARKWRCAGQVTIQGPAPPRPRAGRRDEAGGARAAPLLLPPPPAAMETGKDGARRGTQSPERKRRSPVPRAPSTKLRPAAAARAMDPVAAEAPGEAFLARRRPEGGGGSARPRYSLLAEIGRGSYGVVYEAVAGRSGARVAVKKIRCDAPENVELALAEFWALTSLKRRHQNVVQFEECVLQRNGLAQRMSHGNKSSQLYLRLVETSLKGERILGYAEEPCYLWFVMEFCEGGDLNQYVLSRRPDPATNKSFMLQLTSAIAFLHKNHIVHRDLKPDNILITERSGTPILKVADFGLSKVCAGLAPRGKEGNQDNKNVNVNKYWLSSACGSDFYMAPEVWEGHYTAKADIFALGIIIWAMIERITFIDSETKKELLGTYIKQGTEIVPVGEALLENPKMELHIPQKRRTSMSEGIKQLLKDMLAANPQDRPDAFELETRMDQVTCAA
Experimental: as §1, §2

p38-gamma = biological target: T13, p38-gamma (Homo sapiens, UniProt P53778)
T13 construct: purchased Ambit Biosciences (KINOMEscan)
T13 sequence (P53778 1-367): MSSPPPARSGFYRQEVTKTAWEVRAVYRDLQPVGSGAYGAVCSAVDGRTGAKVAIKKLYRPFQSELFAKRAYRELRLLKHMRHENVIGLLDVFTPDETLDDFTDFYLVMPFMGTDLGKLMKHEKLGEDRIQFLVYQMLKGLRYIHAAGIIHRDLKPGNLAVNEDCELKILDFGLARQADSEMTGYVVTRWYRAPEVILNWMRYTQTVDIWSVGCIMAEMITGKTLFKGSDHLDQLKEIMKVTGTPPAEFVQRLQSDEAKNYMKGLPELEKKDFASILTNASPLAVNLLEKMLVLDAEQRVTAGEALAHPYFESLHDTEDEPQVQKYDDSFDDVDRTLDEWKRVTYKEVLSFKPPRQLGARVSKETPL
Experimental: as §1, §2

T1 sequence (P15056 whole entry V600E): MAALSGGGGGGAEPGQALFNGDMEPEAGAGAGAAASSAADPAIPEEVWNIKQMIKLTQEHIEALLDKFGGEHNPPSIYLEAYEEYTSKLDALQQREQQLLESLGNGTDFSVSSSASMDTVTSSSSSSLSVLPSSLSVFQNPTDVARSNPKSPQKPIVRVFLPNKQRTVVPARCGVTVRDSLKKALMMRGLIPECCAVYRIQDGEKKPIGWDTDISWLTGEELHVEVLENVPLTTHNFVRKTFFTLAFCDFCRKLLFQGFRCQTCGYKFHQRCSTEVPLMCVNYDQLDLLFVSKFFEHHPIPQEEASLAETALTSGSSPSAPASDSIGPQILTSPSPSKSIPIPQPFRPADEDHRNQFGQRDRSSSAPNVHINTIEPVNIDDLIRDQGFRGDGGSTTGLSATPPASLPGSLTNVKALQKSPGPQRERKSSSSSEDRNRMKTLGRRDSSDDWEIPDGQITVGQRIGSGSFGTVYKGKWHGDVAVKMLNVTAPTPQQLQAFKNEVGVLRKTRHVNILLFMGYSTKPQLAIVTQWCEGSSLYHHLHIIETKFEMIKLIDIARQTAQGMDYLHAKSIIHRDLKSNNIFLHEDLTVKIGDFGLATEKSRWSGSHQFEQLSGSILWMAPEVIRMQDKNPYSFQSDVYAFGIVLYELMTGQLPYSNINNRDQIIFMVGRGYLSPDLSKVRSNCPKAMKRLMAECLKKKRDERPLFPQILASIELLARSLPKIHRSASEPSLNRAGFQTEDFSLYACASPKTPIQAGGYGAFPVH

- inhibition at 10 µM (BRAF(V600E); BRAF(V600E), 10 µM, read-out: % Competition): 97%
- % Competition (CSNK1G1): 78%
- % Competition [1]: 95%
- inhibition at 10 µM (MEK4; MEK4, 10 µM, read-out: % Competition): 87%
- inhibition at 10 µM (MRCKB; MRCKB, 10 µM, read-out: % Competition): 98%
- inhibition at 10 µM (PAK4; PAK4, 10 µM, read-out: % Competition): 82%
- inhibition at 10 µM (PKAC-beta; PKAC-beta, 10 µM, read-out: % Competition): 67%
- competition (PKC η): < 50%
- inhibition at 10 µM (RAF1; RAF1, 10 µM, read-out: % Competition): 81%
- inhibition at 10 µM (RIPK4; RIPK4, 10 µM, read-out: % Competition): 76%
- % Competition [2]: 98%
- inhibition at 10 µM (STK35; STK35, 10 µM, read-out: % Competition): 79%
- inhibition at 10 µM (p38-gamma; 10 µM, read-out: % Competition): 90%
Compound: Fc1ccc(-c2c(-c3ccncc3)[nH]c3nccnc23)cc1 [Compound 122]

Compound: CC(O)CNc1cc(-c2[nH]c3cccnc3c2-c2ccc(F)cc2)ccn1 (stereo not drawn) [Compound 140]
- inhibition at 10 µM (BRAF(V600E); read-out: % Competition): 78%
- % Competition (CSNK1G1): 94%
- % Competition [1]: 84%
- inhibition at 10 µM (MEK4; read-out: % Competition): < 50%
- inhibition at 10 µM (MRCKB; read-out: % Competition): < 50%
- inhibition at 10 µM (PAK4; read-out: % Competition): < 50%
- inhibition at 10 µM (PKAC-beta; read-out: % Competition): < 50%
- competition (PKC η): < 50%
- inhibition at 10 µM (RAF1; read-out: % Competition): < 50%
- inhibition at 10 µM (RIPK4; read-out: % Competition): < 50%
- % Competition [2]: 96%
- inhibition at 10 µM (STK35; read-out: % Competition): < 50%
- % Competition (p38-gamma; 10 µM): <50%

- inhibition at 10 µM (BRAF(V600E); BRAF(V600E), compound concentration 10 uM, read-out: Percent Competition): 97%
- Percent Competition (CSNK1G1; compound concentration 10 uM): 78%
- Percent Competition ([1]; compound concentration 10 uM): 95%
- inhibition at 10 µM (MEK4; MEK4, compound concentration 10 uM, read-out: Percent Competition): 87%
- inhibition at 10 µM (MRCKB; MRCKB, compound concentration 10 uM, read-out: Percent Competition): 98%
- inhibition at 10 µM (PAK4; PAK4, compound concentration 10 uM, read-out: Percent Competition): 82%
- inhibition at 10 µM (PKAC-beta; PKAC-beta, compound concentration 10 uM, read-out: Percent Competition): 67%
- inhibition at 10 µM (PKC η; PRKCH, compound concentration 10 uM, read-out: Percent Competition): < 50%
- inhibition at 10 µM (RAF1; RAF1, compound concentration 10 uM, read-out: Percent Competition): 81%
- inhibition at 10 µM (RIPK4; RIPK4, compound concentration 10 uM, read-out: Percent Competition): 76%
- Percent Competition ([2]; compound concentration 10 uM): 98%
- inhibition at 10 µM (STK35; STK35, compound concentration 10 uM, read-out: Percent Competition): 79%
- inhibition at 10 µM (p38-gamma; compound concentration 10 uM, read-out: Percent Competition): 90%
Compound: Fc1ccc(-c2c(-c3ccncc3)[nH]c3nccnc23)cc1 [RO1155697-000-005]
